Earlier results as cited in patent US20130178495A1, “IBUDILAST FOR RELIEVING NEGATIVE EFFECTS OF MEDICATION OVERUSE HEADACHE” (MediciNova, Inc., priority 2011, published 2013).

What was measured:
[1] = single patient, 20 mg per day of ibudilast
[2] = rat, bilateral indwelling catheters between the meninges and the skull

CC(C)C(=O)c1c(C(C)C)nn2ccccc12 [ibudilast]
frequency and intensity of migraine ([1]; migraine on the right side continued): decreased | daily headaches ([1]; no control): disappeared in one week | facial allodynia [2]: blocked and reversed facial allodynia
